Patent US20220372033A1, “ANTIBACTERIAL COMPOUNDS” (Janssen Sciences Ireland Unlimited Company, priority 2019, published 2022)
Values joined by “and” are separate entries in the source; they are usually repeats but may differ in a detail not shown here. Equal values may be shown once. Read-outs that look alike come from different tables or passages of the source.

Key:
[1] = system: rCaCH; experiment: Cardio tox rCaCH; details: read-out: Cardio tox rCaCH (pIC50) (converted)
Excerpt: (§1) The compounds of the invention/examples may have advantages associated with in vitro potency, kill kinetics (i.e. bactericidal effect) in vitro, PK properties, food effect, safety/toxicity (including liver toxicity, coagulation, 5-LO oxygenase), metabolic stability, Ames II negativity, MNT negativity, aqueous based solubility (and ability to formulate) and/or cardiovascular effect e.g. on animals (e.g. anesthetized guinea pig). The data below that was generated/calculated may be obtained using standard methods/assays, for instance that are available in the literature or which may be performed by a supplier (e.g. Microsomal Stability Assay—Cyprotex, Mitochondrial toxicity (Glu/Gal) assay—Cyprotex, as well as literature CYP cocktail inhibition assays).

[2] = system: Mycobacterium tuberculosis (Mtb) bacilli, strain H37Ra; experiment: Phenotypic assay of O2 consumption rate (OCR), Test 4, Seahorse XFe96, with Compound X; details: after Compound X 0.9 μM, test compound 10 μM and uncoupler CCCP 1 μM
[3] = target: hERG(DOF) (Homo sapiens, UniProt Q12809); experiment: Cardio tox hERG(DOF)
Excerpt: as §1

[4] = system: Mitochondrial toxicity (Glu/Gal); experiment: Mitochondrial toxicity (Glu/Gal) assay; assay type: cell-based; details: for Mitotoxicity Score: Glu/Gal assay, <3 indicates no mitotoxicity alerts
Excerpt: as §1
Compounds of the invention/examples, may therefore have the advantage that: • No in vitro cardiotoxicity is observed (for example either due to the CVS results or due to the Glu/Gal assay results, for instance low mitotoxicity (<3 in the Glu/Gal assay indicates no mitotoxicity alerts); and/or • No reactive metabolite formation is observed (e.g. GSH);

[5] = system: rNaCH; experiment: Cardio tox rNaCH
Excerpt: as §1

[6] = system: Mycobacterium tuberculosis strain H37Rv ΔctaE-ΔqcrCAB; experiment: microbe, parasite or virus in culture; assay type: cell-based; details: 240 h

Chain of hERG(DOF) (Q12809 whole entry): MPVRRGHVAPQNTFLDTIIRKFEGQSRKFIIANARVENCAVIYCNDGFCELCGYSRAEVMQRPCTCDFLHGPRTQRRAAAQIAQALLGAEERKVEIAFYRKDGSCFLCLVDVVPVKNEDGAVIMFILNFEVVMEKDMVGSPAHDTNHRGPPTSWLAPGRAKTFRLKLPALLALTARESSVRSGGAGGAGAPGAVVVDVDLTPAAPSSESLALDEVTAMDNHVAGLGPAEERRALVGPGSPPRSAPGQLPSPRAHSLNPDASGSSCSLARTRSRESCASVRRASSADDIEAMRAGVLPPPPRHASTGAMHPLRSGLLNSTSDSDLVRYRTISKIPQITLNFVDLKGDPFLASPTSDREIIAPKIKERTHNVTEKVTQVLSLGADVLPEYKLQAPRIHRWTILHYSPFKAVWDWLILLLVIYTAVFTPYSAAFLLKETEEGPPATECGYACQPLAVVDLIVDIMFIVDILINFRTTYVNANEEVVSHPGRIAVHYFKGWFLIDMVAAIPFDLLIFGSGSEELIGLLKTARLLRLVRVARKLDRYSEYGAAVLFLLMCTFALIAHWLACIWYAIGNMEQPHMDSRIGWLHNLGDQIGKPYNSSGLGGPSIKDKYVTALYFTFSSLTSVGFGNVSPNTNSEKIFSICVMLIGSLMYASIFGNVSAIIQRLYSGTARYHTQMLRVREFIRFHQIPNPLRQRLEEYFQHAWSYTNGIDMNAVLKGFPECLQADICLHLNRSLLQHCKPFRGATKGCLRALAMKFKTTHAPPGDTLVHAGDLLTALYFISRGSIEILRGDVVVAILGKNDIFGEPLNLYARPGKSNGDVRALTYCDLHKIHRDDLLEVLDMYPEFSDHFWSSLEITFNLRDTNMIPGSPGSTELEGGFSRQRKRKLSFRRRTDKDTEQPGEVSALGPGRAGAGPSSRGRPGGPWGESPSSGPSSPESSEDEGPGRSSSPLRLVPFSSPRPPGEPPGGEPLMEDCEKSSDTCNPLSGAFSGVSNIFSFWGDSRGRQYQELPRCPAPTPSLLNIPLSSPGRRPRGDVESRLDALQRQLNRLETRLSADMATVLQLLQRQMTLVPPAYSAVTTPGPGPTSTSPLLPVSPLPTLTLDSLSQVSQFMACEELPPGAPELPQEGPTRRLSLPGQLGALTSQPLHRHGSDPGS

| SMILES | IC50 [1] | melting point | (ii) % OCR after cccp [2] | IC50 [3] | Mitotoxicity Score [4] | IC50 [5] | IC50 [6] | IC50 ([4]; galactose medium, read-out: IC50, gal) | IC50 ([4]; glucose medium, read-out: IC50, glu) |
| --- | --- | --- | --- | --- | --- | --- | --- | --- | --- |
| Cc1c(-c2ccc3cc(-c4cccc(OC(F)(F)F)c4)nn3c2)[nH]c2ccccc2c1=O [Compound 1] | 3.5 µM | 243.7 °C | 93.2% | 3.98 µM | positive | 3.02 µM | 27.8 µM |  |  |
| Cc1c(-c2ccc3cc(-c4cccc(OC(F)(F)F)c4)cn3c2)[nH]c2ccccc2c1=O [Compound 3] | > 10 µM | 257.8 °C | 196.1% and 131.0% | > 10 µM | negative | 1.9 µM | > 100 µM |  |  |
| Cc1c(-c2ccc3nc(-c4ccccc4)cn3c2)[nH]c2ccccc2c1=O [Compound 4] |  | 337.2 °C | 144.1% |  |  |  | > 100 µM |  |  |
| Cc1c(-c2ccc3nc(-c4cccc(OC(F)(F)F)c4)cn3c2)[nH]c2ccccc2c1=O [Compound 5] | > 10 µM | 229.9 °C | 159.3% | > 10 µM |  | 3.8 µM | > 100 µM |  |  |
| CCc1nc2ccc(-c3[nH]c4ccccc4c(=O)c3C)cn2c1C(=O)NCc1ccc(OC(F)(F)F)cc1 [Compound 7] |  |  | 110.6% |  | negative |  |  |  |  |
| Cc1c(-c2ccc3nc(Cc4ccc(OC(F)(F)F)cc4)cn3c2)[nH]c2ccccc2c1=O [Compound 2] | > 10 µM | 244.8 °C | 112.0% | 1.8 µM | positive | 2.6 µM | 91.8 µM |  |  |
| Cc1c(-c2ccc3cc(-c4cccc(OC(F)(F)F)c4)nn3c2)[nH]c2ccccc2c1=O [Compound 8] |  |  | 93.125% |  | positive |  |  | 10.8 µM | ≥ 200 µM |
